Results as given in US20210275545A1, “METHOD OF TREATING CANCER PREFERABLY CHARACTERIZED BY EXPRESSION OF A FUSION PROTEIN COMPRISING A MEMBER OF THE E-TWENTY-SIX FAMILY BY ADMINISTERING AN AGENT THAT INHIBITS THE SYNTHESIS AND/OR ACTIVITY OF CORTISOL” (Yeda Research and Development Co. Ltd., priority 2018, published 2021).

Experiments:
A673 xenograft = A673 xenograft tumor growth; type: in vivo, SCID mice; details: 25 mg/kg daily
Description: FIGS. 6A-E. A GR antagonist and a cortisol-lowering drug impede growth of human xenograft models of Ewing's sarcoma. (A) RD-ES cells (2×10^6) were implanted subcutaneously in the right flank of SCID mice. […] The means of tumor volumes (+SEM) are shown. […] (B) Shown are representative images of immunofluorescent staining for KI67 in paraffin-embedded sections of tumors from A, using an antibody against KI67. Scale bars, 100 μm. Also shown is the scatter plot depicting quantification of KI67 staining in randomly selected 4 fields of a representative tumor from each group. […] (C and D) A673 cells (2×10^6) were implanted in female SCID mice. […] Each group was daily treated with either vehicle, or Metyrapone (25 mg/kg) and tumorigenic growth was monitored. Actual tumor volumes (±SEM) are presented. Also shown are tumors harvested from each group of animals; **p<0.001. (E) TC-71 cells (10^6) engineered to stably express luciferase were injected into the tibia of female SCID mice (5 weeks old; 7 mice per group). […] The control group was similarly treated with the solvent (0.1% tween 80). When the primary tumor reached 10% of body weight, the lungs were excised and examined for metastasis using luciferase bioluminescence imaging. […] Luminescence was quantified and presented in a bar graph. […] Tumor growth was monitored once every 3 days using a caliper. […]

A673 tumors = test: Immunoblotting of A673 tumor extracts; type: in vivo, SCID mice
Experimental: FIGS. 13A-B: A GR antagonist and a cortisol-lowering drug induce markers of cell death in animal models of Ewing's sarcoma. (A) RD-ES tumors presented in FIG. 6A were extracted and analyzed using immunoblotting and the indicated antibodies. Note that tumors from three different mice per group were analyzed. (B) Whole extracts prepared from the tumors presented in FIG. 6D were analyzed using immunoblotting and the indicated antibodies. Note that tumors from three different mice per group were analyzed.
ES animal model studies: All animal experiments were approved by the Weizmann Institute's Animal Care and Use Committee. RD-ES cells and A673 cells (2.5×10^6) were inoculated subcutaneously in the right legs of female SCID mice (6 weeks old). Tumor growth was monitored once every 3 days using a caliper. […] Mice were euthanized when tumor size reached 800-900 mm^3. For metastasis assays, luciferase-labeled TC-71 cells (10^6) were injected orthotopically into the tibia of female SCID mice. Once the primary tumor reached the allowed size limit, we excised the lungs and examined metastases using luciferase bioluminescence imaging.

GR and ERG [1] = target: T1, GR and ERG (Homo sapiens, UniProt P04150)
T1 sequence (P04150 whole entry, the tested form may be a part): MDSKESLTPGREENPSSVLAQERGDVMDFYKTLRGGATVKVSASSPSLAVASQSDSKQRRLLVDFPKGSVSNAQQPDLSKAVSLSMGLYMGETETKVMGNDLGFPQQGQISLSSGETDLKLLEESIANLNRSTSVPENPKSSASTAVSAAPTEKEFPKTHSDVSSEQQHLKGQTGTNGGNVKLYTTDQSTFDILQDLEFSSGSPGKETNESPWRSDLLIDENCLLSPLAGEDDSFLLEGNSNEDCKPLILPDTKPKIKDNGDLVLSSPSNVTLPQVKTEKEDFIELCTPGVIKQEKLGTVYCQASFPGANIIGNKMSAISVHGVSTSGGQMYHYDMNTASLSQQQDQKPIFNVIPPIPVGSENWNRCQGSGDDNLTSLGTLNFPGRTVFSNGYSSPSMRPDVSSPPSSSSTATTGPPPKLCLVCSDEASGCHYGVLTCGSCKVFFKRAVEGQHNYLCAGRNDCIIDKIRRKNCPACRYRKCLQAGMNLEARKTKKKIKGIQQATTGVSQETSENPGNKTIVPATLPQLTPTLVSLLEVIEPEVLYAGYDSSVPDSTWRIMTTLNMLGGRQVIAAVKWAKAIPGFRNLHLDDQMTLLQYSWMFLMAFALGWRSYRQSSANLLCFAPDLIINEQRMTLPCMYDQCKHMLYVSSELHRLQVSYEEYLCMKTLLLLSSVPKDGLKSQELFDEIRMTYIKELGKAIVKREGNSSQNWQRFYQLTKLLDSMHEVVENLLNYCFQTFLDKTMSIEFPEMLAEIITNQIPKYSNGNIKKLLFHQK
Experimental: (§1) (A) The scheme presents the full length Gaussia luciferase protein, along with either the amino-terminal segment (Gluc1), which was fused to an ETS family transcription factor, or the carboxyl terminal segment (Gluc2), which was fused to GR. Amino acid numbers are indicated. cDNAs encoding most members of the ETS family (16 members altogether) were cloned downstream to Gluc1. […] (B) HEK-293T cells (6×10^3) were seeded in 96-well plates. On the next day, cells were transfected with combinations of the Gluc1 plasmid, encoding a fused ETS family member, and the Gluc2 plasmid encoding a fused full-length GR. […] Cells were then lysed and luminescence was determined in biological triplicates. […] (D and E) HEK-293T cells were seeded in 100-mm dishes. Once they reached sub-maximal density (70%), cells were starved overnight for serum factors. […] Cell extracts were then processed for co-immunoprecipitation assays, in which the endogenous FLI1 or ERG protein was immunoprecipitated using a specific antibody, and immunoblotting was performed using an antibody against GR. EB, empty beads; C, solvent control. Images shown are representative of three biological replicates.
(A) HEK-293T cells (6×10^3) were seeded in 96-well plates. On the next day, the cells were transfected with combinations of the Gluc1 plasmid, encoding fused FLI1 or ERG, and the Gluc2 plasmid encoding GR. […] Cells were then lysed and luminescence was determined in each sample. Luminescence of vehicle-treated cells was used for normalization. […] (B) HEK-293T cells were seeded on coverslips in 6-well plates. […] Images were processed using the Zeiss ZEN2011 software. […] Bars, 20 μm.
Protein-fragment complementation assays (PCA): PCA was performed as previously described.

MR and ERG = target: T2, MR and ERG (Homo sapiens, UniProt P08235); test: PCA, Gluc1-ERG + MR-Gluc2; type: cell-based; details: DEX 1 μM, 60 minutes
T2 construct: expressed in transfected cells; host or cells: HEK-293T
T2 sequence (P08235 1-984): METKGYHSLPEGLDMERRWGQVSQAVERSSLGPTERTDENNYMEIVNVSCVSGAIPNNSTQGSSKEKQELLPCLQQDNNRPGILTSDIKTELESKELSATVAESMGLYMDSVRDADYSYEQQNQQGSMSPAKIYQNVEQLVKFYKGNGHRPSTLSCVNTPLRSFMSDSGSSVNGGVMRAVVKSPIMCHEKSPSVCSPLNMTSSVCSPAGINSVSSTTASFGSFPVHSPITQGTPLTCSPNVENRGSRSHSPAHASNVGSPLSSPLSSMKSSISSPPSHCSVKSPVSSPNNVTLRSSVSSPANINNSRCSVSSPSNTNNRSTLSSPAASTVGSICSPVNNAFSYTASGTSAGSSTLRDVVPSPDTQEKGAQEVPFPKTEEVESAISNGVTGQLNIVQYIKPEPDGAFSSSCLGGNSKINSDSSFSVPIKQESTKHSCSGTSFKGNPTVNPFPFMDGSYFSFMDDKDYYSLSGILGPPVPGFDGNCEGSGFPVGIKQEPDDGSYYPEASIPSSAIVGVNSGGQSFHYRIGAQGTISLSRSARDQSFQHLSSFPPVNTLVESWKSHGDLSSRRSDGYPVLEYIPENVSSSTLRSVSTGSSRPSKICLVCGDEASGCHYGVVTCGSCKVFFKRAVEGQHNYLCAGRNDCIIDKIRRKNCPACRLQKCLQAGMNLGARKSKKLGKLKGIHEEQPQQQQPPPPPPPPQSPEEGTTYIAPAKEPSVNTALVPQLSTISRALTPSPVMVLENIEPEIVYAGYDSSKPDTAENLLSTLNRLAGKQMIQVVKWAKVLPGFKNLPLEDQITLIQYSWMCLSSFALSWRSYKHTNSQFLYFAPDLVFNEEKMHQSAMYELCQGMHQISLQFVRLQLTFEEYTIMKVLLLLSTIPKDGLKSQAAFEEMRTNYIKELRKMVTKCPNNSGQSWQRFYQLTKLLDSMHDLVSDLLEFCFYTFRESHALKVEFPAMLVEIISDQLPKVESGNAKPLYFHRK
T2 sequence (P11308 1-486 isoform P11308-3 partner): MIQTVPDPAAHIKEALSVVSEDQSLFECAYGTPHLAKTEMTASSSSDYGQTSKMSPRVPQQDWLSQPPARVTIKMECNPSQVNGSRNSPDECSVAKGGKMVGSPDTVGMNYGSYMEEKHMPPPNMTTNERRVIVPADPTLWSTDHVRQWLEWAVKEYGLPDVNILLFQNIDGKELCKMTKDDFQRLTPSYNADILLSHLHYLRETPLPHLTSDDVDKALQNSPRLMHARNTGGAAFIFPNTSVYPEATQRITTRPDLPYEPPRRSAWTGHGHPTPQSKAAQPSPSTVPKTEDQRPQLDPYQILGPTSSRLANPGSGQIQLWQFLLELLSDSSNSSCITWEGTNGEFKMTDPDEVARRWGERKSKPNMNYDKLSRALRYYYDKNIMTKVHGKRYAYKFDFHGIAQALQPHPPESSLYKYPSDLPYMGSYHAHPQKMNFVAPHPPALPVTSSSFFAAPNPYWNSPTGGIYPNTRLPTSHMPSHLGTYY
Experimental: Cells were then lysed and luminescence was determined.

GR and ERG [2] = target: T1, GR and ERG; remark: listed apart in the source
Experimental: as §1
Proximity ligation assay (PLA), extraction of cells, co-immunoprecipitation and cell migration/invasion assays: These assays were performed exactly as recently reported.

[3] = test system: glucocorticoid response element (GRE); details: naïve cells, endogenous GR; 100 nM, 24 hours
Experimental: HEK-293T cells (1.2×10^4) were seeded in 48-well plates. […] In addition, cells were co-transfected with increasing amounts of a GR expression vector (A), a FLI1-encoding vector (B) or with a combination of both a FLI1 vector and a vector encoding GR, either wild type (C) or a mutant receptor (GRdim−, panel D). Luciferase activity was determined, in biological triplicates, 48 hours later and presented in bar plots. Cells that were pre-transfected with the reporter plasmid were used for normalization. *, p≤0.05; ***, p≤0.001. […] This was followed by cell lysis and determination of luciferase activity in biological triplicates.
Luciferase-reporter assays: Cells were co-transfected with a luciferase plasmid containing the consensus glucocorticoid response element (GRE) along with pGL3-Control (Promega, Madison, Wis.). Luciferase activity was determined using the dual-luciferase reporter assay system (Promega). Firefly luciferase luminescence values were normalized to Renilla luminescence.

Row | Structure (SMILES) | tumor growth rates (A673 xenograft) | γH2AX in tumors (A673 tumors) | luciferase activity (PCA), GR-ERG interaction (GR and ERG [1]) | time of peak of GR-ERG signals after stimulation (PCA) (GR and ERG [1]) | interaction between MR and ERG (PCA) (MR and ERG) | co-immunoprecipitation of GR and ERG (GR and ERG [2]) | increase of GRE activity (luciferase) [3] [fold]
1 | CC(C)(C(=O)c1cccnc1)c1cccnc1 [metyrapone] | clear and statistically significant decrease | elevated |  |  |  |  | 
2 | C[C@@H]1C[C@H]2[C@@H]3CCC4=CC(=O)C=C[C@]4(C)[C@@]3(F)[C@@H](O)C[C@]2(C)[C@@]1(O)C(=O)CO [DEX, dexamethasone] |  |  | highly significant increases | peaked earlier | stimulated strong interactions | enhanced | 40
